{"source": "ChEMBL document CHEMBL5143628", "about": "“Enteroviral replication inhibition by N-Alkyl triazolopyrimidinone derivatives through a non-capsid binding mode” (Bioorg Med Chem Lett, 2022)", "key": {"[1]": {"experiment": "Antiviral activity against Human rhinovirus A71 infected in human H1-HeLa cells assessed as reduction in virus induced cytopathic effect incubated for 3 days by MTT assay", "type": "functional, cell-based"}, "[2]": {"experiment": "Selectivity index, ratio of CC50 for cytotoxicity against human H1-HeLa cells to EC50 for antiviral activity against Human rhinovirus A71 infected in human H1-HeLa cells", "type": "toxicity, cell-based"}, "[3]": {"experiment": "Selectivity index, ratio of CC50 for cytotoxicity against human H1-HeLa cells to EC50 for antiviral activity against Human rhinovirus A21 infected in human H1-HeLa cells", "type": "toxicity, cell-based"}, "rhinovirus B14 [4]": {"test_system": "rhinovirus B14", "experiment": "Antiviral activity against Human rhinovirus B14 infected in human H1-HeLa cells assessed as reduction in virus induced cytopathic effect incubated for 3 days by MTT assay", "type": "functional, organism-based"}, "[5]": {"experiment": "Selectivity index, ratio of CC50 for cytotoxicity against human H1-HeLa cells to EC50 for antiviral activity against Human rhinovirus B14 infected in human H1-HeLa cells", "type": "toxicity, cell-based"}, "rhinovirus A21": {"test_system": "rhinovirus A21", "experiment": "Antiviral activity against Human rhinovirus A21 infected in human H1-HeLa cells assessed as reduction in virus induced cytopathic effect incubated for 3 days by MTT assay", "type": "functional, organism-based"}, "H1-HeLa": {"test_system": "H1-HeLa", "experiment": "(§1) Cytotoxicity against human H1-HeLa cells assessed as reduction in cell viability by MTT assay", "type": "toxicity, cell-based", "settings": "h1-hela"}, "CYP2C19": {"target": "CYP2C19 (Homo sapiens, UniProt P33261)", "sequence (P33261 whole entry)": "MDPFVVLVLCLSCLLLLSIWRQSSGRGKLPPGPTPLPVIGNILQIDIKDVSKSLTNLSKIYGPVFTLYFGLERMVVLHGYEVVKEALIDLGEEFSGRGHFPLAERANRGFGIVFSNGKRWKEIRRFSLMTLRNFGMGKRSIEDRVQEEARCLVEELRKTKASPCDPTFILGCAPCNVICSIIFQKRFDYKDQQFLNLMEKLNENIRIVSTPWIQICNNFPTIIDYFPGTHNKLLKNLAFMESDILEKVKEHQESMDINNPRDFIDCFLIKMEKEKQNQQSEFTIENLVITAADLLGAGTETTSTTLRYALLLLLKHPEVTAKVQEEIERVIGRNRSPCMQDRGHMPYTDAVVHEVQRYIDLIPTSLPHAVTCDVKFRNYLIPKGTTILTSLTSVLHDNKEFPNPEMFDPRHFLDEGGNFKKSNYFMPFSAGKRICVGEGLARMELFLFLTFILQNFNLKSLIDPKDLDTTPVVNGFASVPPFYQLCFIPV", "experiment": "Inhibition of human CYP2C19 at 10 uM incubated for 20 mins in presence of NADPH regenerating system by luminescence assay relative to control", "type": "ADME"}, "rhinovirus A16": {"test_system": "rhinovirus A16", "experiment": "Antiviral activity against Human rhinovirus 16 infected in human H1-HeLa cells assessed as reduction in virus induced cytopathic effect incubated for 3 days by MTT assay", "type": "functional, organism-based", "settings": "Rhinovirus A, 72 h"}, "rhinovirus B14 [6]": {"test_system": "rhinovirus B14", "experiment": "Antiviral activity against Human rhinovirus B14 infected in human H1-HeLa cells assessed as reduction in viral titre at 1 uM pretreated for 1 hr followed by viral infection and measured immediately by time-of-addition assay", "type": "functional, organism-based"}, "rhinovirus A1B": {"test_system": "rhinovirus A1B", "experiment": "Antiviral activity against Rhinovirus A1B infected in human H1-HeLa cells assessed as reduction in virus induced cytopathic effect incubated for 3 days by MTT assay", "type": "functional, organism-based", "settings": "Rhinovirus A, 72 h"}, "rhinovirus B86": {"test_system": "rhinovirus B86", "experiment": "Antiviral activity against Human rhinovirus 86 infected in human H1-HeLa cells assessed as reduction in virus induced cytopathic effect incubated for 3 days by MTT assay", "type": "functional, organism-based", "settings": "Rhinovirus B, 72 h"}, "Rhinovirus B": {"test_system": "Rhinovirus B", "experiment": "Antiviral activity against Rhinovirus B91 infected in human H1-HeLa cells assessed as reduction in virus induced cytopathic effect incubated for 3 days by MTT assay", "type": "functional, organism-based", "settings": "Rhinovirus B, 91, H1-HeLa, 72 h"}, "rhinovirus B14 [7]": {"test_system": "rhinovirus B14", "experiment": "Antiviral activity against Human rhinovirus B14 infected in human H1-HeLa cells assessed as reduction in viral replication by measuring viral production measured 3 days post infection by crystal violet staining based plaque reduction assay", "type": "functional, organism-based", "settings": "dose 0.4-30 µM, time 3.0 day, DDE = dose-dependent effect"}, "Rhinovirus A": {"test_system": "Rhinovirus A", "experiment": "Antiviral activity against Rhinovirus A33 infected in human H1-HeLa cells assessed as reduction in virus induced cytopathic effect incubated for 3 days by MTT assay", "type": "functional, cell-based", "settings": "Rhinovirus A, 33, H1-HeLa, 72 h"}, "[8]": {"experiment": "as §1", "type": "toxicity, cell-based", "settings": "H1-HeLa cells"}, "rhinovirus A2": {"test_system": "rhinovirus A2", "experiment": "Antiviral activity against Human rhinovirus 2 infected in human H1-HeLa cells assessed as reduction in virus induced cytopathic effect incubated for 3 days by MTT assay", "type": "functional, organism-based", "settings": "Rhinovirus A, 72 h"}, "CYP2C9": {"target": "CYP2C9 (Homo sapiens, UniProt P11712)", "sequence (P11712 whole entry)": "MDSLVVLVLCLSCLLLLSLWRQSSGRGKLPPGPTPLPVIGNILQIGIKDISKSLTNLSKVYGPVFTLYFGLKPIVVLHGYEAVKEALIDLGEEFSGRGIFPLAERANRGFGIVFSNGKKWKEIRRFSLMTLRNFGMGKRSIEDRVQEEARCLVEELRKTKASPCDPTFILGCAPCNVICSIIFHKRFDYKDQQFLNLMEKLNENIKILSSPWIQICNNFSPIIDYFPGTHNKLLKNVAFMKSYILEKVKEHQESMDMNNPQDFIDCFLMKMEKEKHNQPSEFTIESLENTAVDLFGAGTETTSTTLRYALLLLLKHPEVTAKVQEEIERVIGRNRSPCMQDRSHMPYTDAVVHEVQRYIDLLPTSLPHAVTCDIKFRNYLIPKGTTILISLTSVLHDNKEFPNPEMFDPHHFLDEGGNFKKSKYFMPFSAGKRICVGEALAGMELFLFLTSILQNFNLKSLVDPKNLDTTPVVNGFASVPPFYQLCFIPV", "experiment": "Inhibition of human CYP2C9 at 10 uM incubated for 20 mins in presence of NADPH regenerating system by luminescence assay relative to control", "type": "ADME"}, "[9]": {"settings": "H1-HeLa cells, read-out: Ratio CC50/EC50"}}, "note": "Activity calls are given as the source filed them. The rule behind the calls is not given here."}
{"smiles": "CCCn1c(=O)c2c3c(sc2n2cnnc12)CC(C(C)(C)C)CC3", "note": "(stereo in doubt; 2c-1)", "values": [{"measurement": "EC50", "setting": "[1]; h1-hela", "value": 1.7, "unit": "µM"}, {"measurement": "Ratio CC50/EC50", "setting": "[2]", "value": "> 58.8"}, {"measurement": "Ratio CC50/EC50", "setting": "[3]", "value": "> 28.5"}, {"measurement": "EC50", "setting": "rhinovirus B14 [4]; h1-hela", "value": 3.7, "unit": "µM"}, {"measurement": "Ratio CC50/EC50", "setting": "[5]", "value": "> 27"}, {"measurement": "EC50", "setting": "rhinovirus A21; h1-hela", "value": 3.5, "unit": "µM"}, {"measurement": "CC50", "setting": "H1-HeLa", "value": "> 100", "unit": "µM"}]}
{"smiles": "CCCn1c(=O)c2c3c(sc2n2cnnc12)CC(C(C)(C)C)CC3", "note": "(stereo in doubt; 2c-2)", "values": [{"measurement": "EC50", "setting": "[1]; h1-hela", "value": 1.9, "unit": "µM"}, {"measurement": "Ratio CC50/EC50", "setting": "[2]", "value": "> 52.6"}, {"measurement": "Ratio CC50/EC50", "setting": "[3]", "value": "> 12.9"}, {"measurement": "EC50", "setting": "rhinovirus B14 [4]; h1-hela", "value": 7.8, "unit": "µM"}, {"measurement": "Ratio CC50/EC50", "setting": "[5]", "value": "> 12.8"}, {"measurement": "EC50", "setting": "rhinovirus A21; h1-hela", "value": 7.7, "unit": "µM"}]}
{"smiles": "CN(C)CCC=C1c2ccccc2CCc2ccccc21", "note": "[AMITRIPTYLINE]", "values": [{"measurement": "inhibition at 20 min, 10 µM", "setting": "CYP2C19", "value": 90.2, "unit": "%"}]}
{"smiles": "Cc1cc(CCCOc2c(C)cc(-c3noc(C(F)(F)F)n3)cc2C)on1", "note": "[PLECONARIL]", "values": [{"measurement": "EC50", "setting": "[1]; Rhinovirus A, H1-HeLa, 72 h", "value": 0.017, "unit": "µM"}, {"measurement": "EC50", "setting": "rhinovirus A16", "value": 0.51, "unit": "µM"}, {"measurement": "selectivity ratio", "setting": "[2]; [9]", "value": 1700}, {"measurement": "Activity", "setting": "rhinovirus B14 [6]", "value": "Active"}, {"measurement": "selectivity ratio", "setting": "[3]; [9]", "value": 161}, {"measurement": "EC50", "setting": "rhinovirus A1B", "value": 0.24, "unit": "µM"}, {"measurement": "EC50", "setting": "rhinovirus B86", "value": 0.29, "unit": "µM"}, {"measurement": "EC50", "setting": "rhinovirus B14 [4]; Rhinovirus B, H1-HeLa, 72 h", "value": 0.2, "unit": "µM"}, {"measurement": "EC50", "setting": "Rhinovirus B", "value": 1.4, "unit": "µM"}, {"measurement": "selectivity ratio", "setting": "[5]; [9]", "value": 145}, {"measurement": "EC50", "setting": "rhinovirus A21; Rhinovirus A, H1-HeLa, 72 h", "value": 0.17, "unit": "µM"}, {"measurement": "Activity", "setting": "rhinovirus B14 [7]", "value": "Dde"}, {"measurement": "EC50", "setting": "Rhinovirus A", "value": 0.45, "unit": "µM"}, {"measurement": "CC50", "setting": "[8]", "value": 20.8, "unit": "µM"}, {"measurement": "EC50", "setting": "rhinovirus A2", "value": 0.08, "unit": "µM"}]}
{"smiles": "Nc1ccc(S(=O)(=O)Nc2ccnn2-c2ccccc2)cc1", "note": "[SULFAPHENAZOLE]", "values": [{"measurement": "inhibition at 20 min, 10 µM", "setting": "CYP2C9", "value": 85.8, "unit": "%"}]}
